The target in the first series is T1, kinase domain of IRE1 alpha (Homo sapiens, UniProt O75460, D688N).
T1 construct: (KR, AA G547-L977, D688N); made in house; host or cells: Sf9 insect cells
T1 sequence (O75460 547-977 D688N): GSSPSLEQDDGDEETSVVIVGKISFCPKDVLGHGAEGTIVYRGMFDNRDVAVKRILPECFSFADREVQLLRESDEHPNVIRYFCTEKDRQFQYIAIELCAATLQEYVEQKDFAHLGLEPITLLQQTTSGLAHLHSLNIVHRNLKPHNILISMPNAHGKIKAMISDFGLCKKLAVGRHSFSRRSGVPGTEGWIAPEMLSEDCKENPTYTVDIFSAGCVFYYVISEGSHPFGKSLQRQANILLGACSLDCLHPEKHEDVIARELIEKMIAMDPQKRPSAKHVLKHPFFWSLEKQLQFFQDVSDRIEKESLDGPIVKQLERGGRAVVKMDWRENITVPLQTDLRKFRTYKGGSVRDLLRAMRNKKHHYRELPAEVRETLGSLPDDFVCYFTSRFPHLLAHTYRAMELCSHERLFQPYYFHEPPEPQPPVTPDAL
Description: IRE1α TR-FRET competition binding assay. Particulars: Kinase Tracer 236 0.1 μM; kinase dead IRE1 alpha KR construct. On the procedure: To determine the affinity of compound binding to the kinase domain of IRE1 alpha, a Time Resolved Fluorescence Resonance Energy Transfer (TR-FRET) competition assay was used. A His-tagged IRE1 alpha kinase dead construct containing the kinase and RNase domains (KR, AA G547-L977, D688N) was expressed in Sf9 insect cells. The purified protein (final concentration 0.006 OA micromolar) was pre-incubated with anti-His Europium labeled antibody (Life Technologies PV5596, final concentration 0.002 OA micromolar) for one hour at 4° C. in 1×TR-FRET Assay Buffer (50 mM HEPES, pH 7.5, 10 mM MgCl2, 0.083 mM Brij 35, 1 mM DTT, and 0.1% bovine gamma globulin) prior to addition to test compounds. A fluorescent labeled probe based on an ATP competitive inhibitor (Kinase Tracer 236, Life Technologies PV5592) is added to a final concentration of 0.1 μM (micromolar). Reactions were carried out for one hour at room temperature in a final volume of 20 μL (microliter) in 384 well white ProxiPlates (Perkin Elmer 6008289). Binding of the tracer to the IRE1 protein alpha was detected in an Envision instrument (PerkinElmer) equipped with a TRF laser option and a LANCE/Delfia Dual/Bias D400/D630 mirror (Ex 347 nm, 1st Em 665 nm, 2nd Em 615 nm).
Exemplary compounds depicted in Table 1 were tested in the IRE1α binding assays.
(In general: In TR-FRET formats the signal depends on donor and acceptor labels being close together.)
What is called IC50 is the concentration needed to halve the response being measured. As for `Cc1ccc2c(NS(=O)(=O)c3ccccc3Cl)cccc2c1Oc1nnccc1-c1ccnc(N[C@H]2CCCNC2)n1` [Compound 1, (S)-2-chloro-N-(6-methyl-5-((4-(2-(piperidin-3-ylamino)pyrimidin-4-yl)pyridazin-3-yl)oxy)naphthalen-1-yl)benzenesulfonamide], the IC50 came to 6.1 nM.

Take `Cc1ccc2c(NC(=O)C3CC3)cccc2c1Oc1nnccc1-c1ccnc(N[C@H]2CCCNC2)n1` [Compound 2, (S)-N-(6-methyl-5-((4-(2-(piperidin-3-ylamino)pyrimidin-4-yl)pyridazin-3-yl)oxy)naphthalen-1-yl)cyclopropanecarboxamide]: the IC50 turned out to be 38 nM. `CCCS(=O)(=O)Nc1cccc2c(Oc3nnccc3-c3ccnc(N[C@H]4CCCNC4)n3)c(C)ccc12` [Compound 3, (S)-N-(6-methyl-5-((4-(2-(piperidin-3-ylamino)pyrimidin-4-yl)pyridazin-3-yl)oxy)naphthalen-1-yl)propane-1-sulfonamide] gave an IC50 of 12 nM. `CCCS(=O)(=O)Nc1c(F)ccc2c(Oc3ncncc3-c3ccnc(N[C@@H]4CNC[C@@H](F)C4)n3)c(C)ccc12` [Compound 4, N-(2-fluoro-5-((2-(((3S,5S)-5-fluoropiperidin-3-yl)amino)-[4,5′-bipyrimidin]-4′-yl)oxy)-6-methylnaphthalen-1-yl)propane-1-sulfonamide] had an IC50 of 3.3 nM.

The molecule `Cc1ccc2c(NS(=O)(=O)CCC(C)(F)F)c(F)ccc2c1Oc1nnccc1-c1ccnc(N[C@@H]2CNC[C@@H](F)C2)n1` [Compound 5, 3,3-difluoro-N-[2-fluoro-6-methyl-5-[4-[2-[[-(3S,5S)-5-fluoro-3-piperidyl]amino]pyrimidin-4-yl]pyridazin-3-yl]oxy-1-naphthyl]butane-1-sulfonamide] returned an IC50 of 3.1 nM. Regarding `CCCS(=O)(=O)Nc1c(F)ccc2c(Oc3nnccc3-c3ccnc(N[C@@H]4CNC[C@@H](F)C4)n3)c(C)ccc12` [Compound 6, N-(2-fluoro-5-((4-(2-(((3S,5S)-5-fluoropiperidin-3-yl)amino)pyrimidin-4-yl)pyridazin-3-yl)oxy)-6-methylnaphthalen-1-yl)propane-1-sulfonamide], the IC50 was 7.1 nM.

The subject of another series is cells.
Assay: not given
The note with it: high levels; cited from earlier work.
Take `Cc1cc(=O)oc2c(C=O)c(O)ccc12` [Compound 4μ8C]: the toxicity in cells result is recorded as “no measurable toxicity”.

Values taken from patent US20220048888A1, “PYRIMIDINYL-HETEROARYLOXY-NAPHTHYL COMPOUNDS AND METHODS OF USE” (Genentech, Inc., priority 2018, published 2022).
